For one assay, the system named is RAW264.7 cells. As to the kind of experiment: qRT-PCR of inflammatory genes in LPS-treated RAW264.7 cells. Format: cell-based. The following applies: LPS 1 μg/ml + P7C3 1 μM, 24 hours. As to the method: FIGS. 2A and 2B show macrophage: LPS induced inflammation and recovery via P7 markers such as NF-κb, IL-1β, IL-6. […] RAW264.7 cells was treated with LPS (1 μg/ml) and P7C3 (1 μM) for 24 hours. The isolated mRNA was subjected qRT-PCR using iScript cDNA Synthesis Kit (Bio-Rad, Cat #: 1706691) and iTaq Universal SYBR Green Supermix (Bio-Rad, Cat #: 1725121) in iCycler iQ Real Time PCR Detection System (Bio-Rad). The value of 2^-ΔΔCt was calculated and expressed as a Mean±SEM (n=6). The statistical analysis was performed using two-way ANOVA with Tukey's multiple comparisons test in GraphPad Prism 8.4.3, and p≤0.05 was considered statistically significant. […]
(Real-time PCR tracks product formation cycle by cycle.)

For assay [1], the system named is db/db mice. As to the kind of experiment: Pancreatic β cells immunostaining and Gomori aldehyde fuchsin staining in db/db mice. Format: in vivo. The following applies: 4 weeks. On the procedure:
Immunostaining. Immunostaining of the pancreas was performed for the measurement of insulin secreting β cells area, as previously described. Briefly, the frozen pancreatic tissues were fixed into tissue freezing media (TFM). Pancreas were cut into 10 μm thick sections and kept at −80° C. For immunostaining, the slides were first air dried and washed with phosphate buffer saline (PBS). The sections were then fixed in 4% paraformaldehyde for 30 min and blocked with SuperBlock™ T20 (TBS) blocking buffer (Thermo scientific, MA, USA) for 30 min, at room temperature (RT). Slides were then incubated with insulin primary antibody (sc-9168, Santa Cruz, TX, USA) diluted in blocking buffer (1:200), overnight at 4° C. Slides were then washed in PBS and incubated with Alexa Fluor®488 secondary antibody (Abcam, Mass., USA) diluted in blocking buffer for 1 h at RT. Following washes, the slides were then mounted with ProLong® Gold antifade mountant containing DAPI (Molecular Probe, OR, USA). Nuclei were labelled by DAPI. The images obtained with confocal multiphoton laser scanning microscope (Olympus FV1000 MPE, Olympus Inc., USA) were quantified by using ImageJ software (NIH, USA). The cross-sectional areas of pancreas and β cells were determined from multiple sections (n=3 mice per group), separated by at least 50 μm from each section. Pancreatic β cell area was calculated by using the following formula: islet β cell area (%)=(area stained by insulin anti-body/total islets area)×100.
Gomori aldehyde fuchsin staining. The Gomori aldehyde fuchsin staining of the pancreatic β cells was performed as per previously published protocol. Briefly, the frozen pancreas was TFM embedded and cut into 6 μm thick transverse serial cryosections using Microm cryostat machine. The slides were air dried at 60° C. and dewaxed using xylene and then hydrated through decreasing concentrations of ethyl alcohol. The slides were then rinsed in cold tap water followed by a single rinse in 50% ethanol and immersed in aldehyde fuchsin (Electron Microscopy Services, PA, USA) for 1 h. The excess stain was removed by rinsing in 70% ethanol and tap water. The slides were then counter-stained with Light Green (American Master Tech Scientific, CA, USA) through immersion for 60 s and dehydrated with increasing concentration of ethanol, and cleared with xylene. The sections were then mounted with disterene phthalate xylene (DPX) mountant (Sigma-Aldrich, MO, USA). Images were obtained at ×20 magnification with the Olympus IX73 inverted microscope using CellSens Standard software (Olympus Soft Imaging Solution, USA) and quantified with ImageJ software (NIH, USA).

Assay [2] relates to db/db mice. Nature of the assay: Fasting blood glucose and GTT in db/db mice (Example 5). Format: in vivo. From the text:
Fasting blood glucose. Mice were fasted overnight, and the tail vein blood was used for measuring the blood glucose levels of the diabetic mice treated with either Vehicle (db/db Veh) or P7C3 (db/db P7C3) for 4 weeks.
Glucose tolerance test. […] Blood samples were obtained by the submandibular puncture technique.

The test system of a further assay is Sirt1. As to the kind of experiment: Sirt1 deacetylase activity in db/db heart lysates. Conditions: vs vehicle controls. Format: in vivo, mice. On the procedure: Sirt1 deacetylase activity. Sirt1 deacetylase activity was measured in the whole heart lysates from the vehicle and P7C3 treated db/db mice according to the manufacturer's protocol using a deacetylase fluorometric assay kit (Sigma-Aldrich, MO, USA). The fluorescence intensity was measured at 440 nm (excitation, 340 nm).

A further assay relates to C57Bl/6J wildtype hearts. As to the kind of experiment: Ex vivo ischemia reperfusion, post-ischemia exposure in wildtype hearts. Details: species or system mice. On the procedure: Hearts undergoing ex vivo ischemia reperfusion protocol post-exposure with P7C3 (3 μM) were performed as defined above. Hearts were stabilized for 30 min before proceeding to the ischemic phase. Cardiac ischemia was induced by the pause in Krebs-Hanseleit buffer perfusion for 45 min. Reperfusion was induced with the induction of Krebs-Hanseleit buffer at a constant flow of ˜2.2 ml/min for 1 hour. Hearts that underwent P7C3 (3 μM) treatment received 1-hour reperfusion with P7C3 (3 μM) within the Krebs-Hanseleit buffer.

Each structure is given as a SMILES string.

Regarding `OC(CNc1ccccc1)Cn1c2ccc(Br)cc2c2cc(Br)ccc21` (stereo not drawn) [P7C3, 3,6-Dibromo-a-[(phenylamino)methyl]-9H-carbazole-9-ethanol], in the assay with RAW264.7 cells, the IL-1β expression result is listed as “significantly decreased”, the IL-6 expression result is on record as “decreased”, the IL-10 expression entry was “decreased” and the NF-κb expression entry is “significantly decreased”. In addition, the TNFα expression entry with RAW264.7 cells is “significantly decreased”. Besides, in the assay with db/db mice [1] (vs db-Veh), the “number of islet of Langerhans per tissue section” value is “significant increase”, the “number of β cells per islets of Langerhans” value was “increased” and the “number of β cells per tissue section” value is recorded as “significant increase”. Besides, the “insulin positive β cells area per islet of Langerhans area” value in the assay with db/db mice [1] (vs vehicle) is on record as “significant increase”. In the assay on db/db mice [2] (db/db, 4 weeks, between treatment groups), the “GTT decrease in circulating blood glucose from 30 minutes onwards” value is recorded as “non-significant”. In addition, in the assay with db/db mice [2] (db/db, trapezium method, p=0.0021), the “GTT area under curve” value is recorded as “significant difference”. In the assay with db/db mice [2] (overnight fasted db/db, 10 mg/kg/day i.p., 4 weeks, vs vehicle), the “fasting blood glucose levels” value is recorded as “significant decrease”. In addition, in the assay on Sirt1, the “SiRT1 activity in cardiac tissue” value is listed as “significant increase”. Moreover, the “overall ischemic injury (infarct)” value in the assay on C57Bl/6J wildtype hearts (WT hearts perfused post-ischemia with P7C3 3 μM, 60 mins reperfusion) is 22%. Besides, the “reduction of overall infarct size compared with reperfusion alone” value in the assay with C57Bl/6J wildtype hearts (post-ischemic exposure, wildtype hearts) was 2.5 fold.

The values are drawn from US20220370636A1, “NICOTINAMIDE ADENINE DINUCLEOTIDE ACTIVATOR AND USE THEREOF” (University of South Florida, priority 2021, published 2022).
